Results on 1 compound are retold here after patent publication US8057829B2, “Methods for repelling insects using sesquiterpene hydrocarbons and their derivatives” (Sterling International Inc., priority 2008, dated 2011).

Test [1] has as its system housefly (Musca domestica) antenna. As to the kind of experiment: GC-EAD antennal response, housefly. As to conditions: female housefly antenna; synthetic mixture, about 100 ng of each compound; FIG. 3. The source says:
The sesquiterpene hydrocarbons and their derivatives disclosed herein have been identified as suitable insect repellents by testing via a gas chromatographic-electroantennographic detection (GC-EAD) method as described in Example 1 below. This method can be used to efficiently screen for potentially behaviorally active compounds, including insect repellents, attractants, deterrents, or attraction-inhibitors from complex natural sources or synthetic mixtures.
The GC-EAD responses of the female housefly antenna were tested on a synthetic mixture of 1-octen-3-ol, a known attractant used as a positive control, and representative sesquiterpene hydrocarbons and derivatives, (+)-longipinene, (−)-isolongifolene, (+)-longifolene, β-caryophyllene, α-humulene, and isolongifolenone, with about 100 ng of each compound in the mixture.
The GC-EAD responses of the male housefly antenna were tested on a synthetic mixture of 1-octen-3-ol, and two representative sesquiterpenes, β-caryophyllene and isocaryophyllene, with about 100 ng of each compound in the mixture.
(§1) The following procedures were employed to test the EAD response of an insect antenna to a repellent compound. The GC-EAD technique provides an efficient tool for screening behaviorally active repellents. Several synthetic mixtures of potential insect repellent candidates, mostly sesquiterpene hydrocarbons and derivatives, were analyzed in splitless mode using a Varian CP-3800 GC equipped with a polar column (Innowax; 1.0 μm film thickness, 30 m×0.53 mm ID; J & W Scientific), and a 1:1 effluent splitter that allowed simultaneous flame ionization detection (FID) and EAD of the separated volatile compounds. Helium was used as the carrier gas, and the injector temperature was 220° C. The column temperature was 50° C. for 2 min, rising to 240° C. at 10° C./min, then held for 10 min. The outlet for the EAD was held in a humidified air stream flowing at 0.5 liter/min. over an antennal preparation. A glass capillary indifferent electrode filled with Beadle-Ephrussi Ringer, and grounded via a silver wire, was inserted into the severed insect's head with the antennae. A similar recording electrode connected to a high-impedance DC amplifier with automatic baseline drift compensation was placed in contact with the distal end of one antenna (Zhang et al., Chemoecology, 10:69-80 (2000)). The antennal signals were stored and analyzed on a PC equipped with a serial IDAC interface box and the program EAD ver. 2.5 (Syntech, Hilversum, The Netherlands). The compound 1-octen-3-ol (known attractant for many flies and mosquitoes) was included in most of the synthetic mixtures, as a positive control. The results of the experiments are shown in FIGS. 1-10 and described above.

For test [2], the system named is female mosquito Culex pipiens antenna. As to the kind of experiment: GC-EAD antennal response, Culex pipiens. As to conditions: female Culex pipiens antennae; about 100 ng of each compound; responses weak, but repeatable; FIGS. 7 and 8. On the procedure: The GC-EAD responses of the female mosquito Culex pipiens antenna were tested on a synthetic mixture of 1-octen-3-ol, and two sesquiterpene hydrocarbons, β-caryophyllene and isocaryophyllene, with about 100 ng of each compound in the mixture.
The GC-EAD responses of the female mosquito Culex pipiens antenna were tested on a synthetic mixture of 1-octen-3-ol, and representative sesquiterpene hydrocarbons and derivatives including (+)-longipinene, (−)-isolongifolene, (+)-longifolene, β-caryophyllene, and isolongifolenone, with about 100 ng of each compound in the mixture.
Antennal responses were weak, but repeatable, thus are considered to be true responses.
as §1

Test [3] deals with female antennae of sand fly Phlebotomus papatasi and mosquitoes Aedes aegypti, Anopheles gambiae, Anopheles stephensi. As to the kind of experiment: GC-EAD responses of sand fly and three mosquitoes to synthetic mixtures. The conditions noted are these: about 100 ng of each compound, on one or more of the sand fly or the mosquitoes, FIGS. 9 and 10. The procedure:
The GC-EAD responses of female antennae of the sand fly, Phlebotomus papatasi, and three species of mosquitoes, Aedes aegypti, Anopheles gambiae, and anopheles stephensi were tested on a synthetic mixture of 1-octen-3-ol, six sesquiterpene hydrocarbons including (+)-longipinene, (−)-isolongifolene, (+)-longifolene, β-caryophyllene, isolongifolenone, and α-humulene, and several known insect repellents including ZE-nepetalactone, EZ-nepetalactone, with about 100 ng of each compound in the mixture.
The GC-EAD responses of female antennae of the sand fly, Phlebotomus papatasi, and three species mosquitoes, Aedes aegypti, Anopheles gambiae, and anopheles stephensi were tested on a synthetic mixture of 1-octen-3-ol, linalool, β-caryophyllene oxide, isocaryophyllene, β-caryophyllene, and α-humulene, and DEET, with about 100 ng of each compound in the mixture.
as §1

The next test has as its system houseflies. As to the kind of experiment: Laboratory sticky trap bioassay of spatial repellency with egg powder attractant. It is filed as in vivo, housefly (Musca domestica). As to conditions: egg powder plus repellent, FIG. 13. On the procedure:
Laboratory bioassay tests were carried out to investigate the efficacy of some of the EAD-active compounds described above to act as spatial repellents against several insects. The procedure for the bioassay tests is described in Example 2 below. Briefly stated, the bioassay included using egg powder (EP) as an attractant for flies, while the compound whose insect repellency was being tested was placed in proximity to the egg powder. In FIGS. 11-13, the bioassay was carried out on houseflies using devices known by the designation Trécé Pherocon® VI sticky traps.
The following lab bioassay tests were employed to illustrate the efficacy of the compounds to effectively act as spatial repellents for flies. Three sets of tests were conducted in a fly testing room (23° C., 70% RH, and 12/12 (L/D) light regime illuminated by fluorescent lights). Two sets of tests were carried out using Trécé Pherocon® VI traps with sticky inserts, which were set up on poles evenly spaced on a rotating table. The traps were ca. 1 m above a table surface, and ca. 1 m apart from each other. Two grams of egg powder in a white cap (4 cm in diameter, 0.5 cm in height) used as an attractant was put on the center of the sticky insert in the sticky trap. The potential repellent candidate chemicals were loaded into polyethylene bags, and were hung under the inner roof of the traps, 1-1.5 cm above the egg powder attractant. A control had the empty white cap and blank polyethylene bag, while the positive control had only the egg powder and an empty polyethylene bag. The test table was rotated 1.5 r.p.h. […] About 200-300 houseflies (2-3 days old) were released into the testing room for each test. Tests were normally run from 8:00 am to 5:00 pm, and the numbers of houseflies caught in each trap were counted after each test. The results of these tests are shown in FIGS. 11-13 and described above.

On to `CC1(C)C2=CCCC(C)(C)C23CCC1C3` (single isomer, unassigned; (-)) [(−)-isolongifolene, 2,2,7,7-tetramethyltricyclo undec-5-ene], for which the GC-EAD antennal activity result was “active” in test [1], “active” in test [2] and “antennally active” in test [3]. In addition, the “female house flies per trap” value with houseflies (egg powder alone 76 females) is 39 house flies per trap. In the test on houseflies (egg powder alone 95 males), the “male house flies per trap” value amounted to 30 house flies per trap.
